Assay results taken from ChEMBL document CHEMBL4680157, “Design, synthesis and biological evaluation of novel TRβ selective agonists sustained by ADME-toxicity analysis” (Eur J Med Chem, 2020).

Key:
[1] = Toxicity in F344 rat assessed as reduction in liver and body weight ratio at 50 to 100 ug per 100 g body weight, ig administered daily for 3 days; assay type: tissue-based; settings: in vivo, po, 72 h, dose 50-100 µg, time 3 day
[2] = Toxicity in F344 rat assessed as effect on serum ALT/GPT level at 75 ug per 100 g body weight, ip administered daily for 3 days (reference value: 46 +/- 4 U/L); assay type: organism-based; settings: in vivo, 72 h, dose 75 µg, time 3 day
[3] = Toxicity in F344 rat assessed as effect on serum bilirubin level at 50 ug per 100 g body weight, ig administered daily for 3 days (reference value: 1.4 +/- 0.2 mg/dl); settings: in vivo, po, 72 h, dose 50 µg, time 3 day
[4] = Toxicity in F344 rat assessed as effect on serum glucose level at 75 ug per 100 g body weight, ip administered daily for 3 days (reference value: 151 +/- 13.5 mg/dl); assay type: organism-based; settings: in vivo, 72 h, dose 75 µg, time 3 day
[5] = Toxicity in F344 rat assessed as effect on serum cholesterol level at 75 ug per 100 g body weight, ip administered daily for 3 days (reference value: 67.2 +/- 2.5 mg/dl); assay type: organism-based; settings: in vivo, 72 h, dose 75 µg, time 3 day
[6] = Toxicity in F344 rat assessed as effect on serum triglycerides level at 100 ug per 100 g body weight, ig administered daily for 3 days (reference value: 86.8 +/- 10.4 mg/dl); settings: in vivo, po, 72 h, dose 100 µg, time 3 day
[7] = biological target: T1, TRalpha (thyroid hormone receptor alpha) (Homo sapiens, UniProt P10827); test: Agonist activity at TRalpha (unknown origin) at 1 uM by Lanthascreen TR-FRET assay relative to control; settings: read-out: Activity
T1 sequence (P10827 whole entry): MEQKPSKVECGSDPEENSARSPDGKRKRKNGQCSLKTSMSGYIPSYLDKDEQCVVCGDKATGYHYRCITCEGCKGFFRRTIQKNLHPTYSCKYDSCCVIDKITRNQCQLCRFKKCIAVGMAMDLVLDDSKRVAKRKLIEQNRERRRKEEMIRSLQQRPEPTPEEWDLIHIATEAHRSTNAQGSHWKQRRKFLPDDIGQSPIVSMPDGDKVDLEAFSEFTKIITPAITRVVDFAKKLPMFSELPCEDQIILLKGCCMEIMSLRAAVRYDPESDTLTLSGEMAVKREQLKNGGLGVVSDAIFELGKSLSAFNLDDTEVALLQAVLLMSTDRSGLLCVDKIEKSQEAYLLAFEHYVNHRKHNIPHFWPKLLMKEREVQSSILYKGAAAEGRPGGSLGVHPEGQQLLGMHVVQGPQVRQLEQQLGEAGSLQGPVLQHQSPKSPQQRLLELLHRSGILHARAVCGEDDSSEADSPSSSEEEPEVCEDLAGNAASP

[8] = biological target: T2, Thyroid hormone receptor alpha (Homo sapiens, UniProt P10827); test: Agonist activity at TRalpha (unknown origin) by Lanthascreen TR-FRET assay
T2 sequence (P10827 whole entry): T1 sequence (P10827 whole entry)

[9] = biological target: T3, Thyroid hormone receptor beta (Homo sapiens, UniProt P10828); test: Agonist activity at TRbeta (unknown origin) by Lanthascreen TR-FRET assay
T3 sequence (P10828 whole entry): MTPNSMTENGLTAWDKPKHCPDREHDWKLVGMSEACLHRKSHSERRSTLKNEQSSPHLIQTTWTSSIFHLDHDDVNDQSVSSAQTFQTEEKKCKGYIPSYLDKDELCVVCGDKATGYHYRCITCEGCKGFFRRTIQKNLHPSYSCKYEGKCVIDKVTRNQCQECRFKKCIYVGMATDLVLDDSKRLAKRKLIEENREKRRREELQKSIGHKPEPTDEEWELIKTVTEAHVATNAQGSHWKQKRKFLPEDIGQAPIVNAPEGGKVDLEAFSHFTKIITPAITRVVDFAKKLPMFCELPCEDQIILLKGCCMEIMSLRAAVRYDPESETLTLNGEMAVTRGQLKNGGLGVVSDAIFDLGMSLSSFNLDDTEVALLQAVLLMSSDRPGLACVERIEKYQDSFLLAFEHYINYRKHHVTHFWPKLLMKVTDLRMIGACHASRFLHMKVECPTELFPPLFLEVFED

SMILES	Activity [1]	Activity [2]	Activity [3]	Activity [4]	Activity [5]	Activity [6]	activity at 1 µM [7]	EC50 [8]	EC50 [9]
CC(=O)Nc1ccc(Cc2c(C)cc(OCC(=O)O)cc2C)cc1C(C)C	Non-Toxic	38 U/L	1.1 mg/dL	132 mg/dL	71.4 mg/dL	62.8 mg/dL			
Cc1cc(OCC(=O)O)cc(C)c1Cc1ccc(N)c(C(C)C)c1	Non-Toxic	36 U/L	1.3 mg/dL	129 mg/dL	69.6 mg/dL	67.8 mg/dL	30%		
Cc1cc(OCC(=O)O)cc(C)c1Cc1ccc(O)cc1								54 nM	32 nM
